Data taken from the NIST ThermoML archive (doi:10.1021/je800548t).
± gives the expanded uncertainty stated by the source.

Conditions: Liquid, Ebulliometric method (Recirculating still)

vapor or sublimation pressure (305 K) [kPa]	vapor or sublimation pressure (310 K) [kPa]	vapor or sublimation pressure (315 K) [kPa]	vapor or sublimation pressure (320 K) [kPa]	vapor or sublimation pressure (325 K) [kPa]	vapor or sublimation pressure (330 K) [kPa]	vapor or sublimation pressure (335 K) [kPa]	vapor or sublimation pressure (340 K) [kPa]	vapor or sublimation pressure (342 K) [kPa]	vapor or sublimation pressure (321 K) [kPa]	vapor or sublimation pressure (345 K) [kPa]	vapor or sublimation pressure (350 K) [kPa]	vapor or sublimation pressure (355 K) [kPa]	vapor or sublimation pressure (359 K) [kPa]	SMILES
34.81 ± 0.14	42.47 ± 0.17	51.43 ± 0.21	61.85 ± 0.25	73.88 ± 0.3	87.71 ± 0.36	103.5 ± 0.42	121.45 ± 0.49	129.28 ± 0.52	–	–	–	–	–	ClC(Cl)Cl [trichloromethane]
–	–	–	–	32.02 ± 0.26	40.44 ± 0.33	50.67 ± 0.41	63 ± 0.51	–	26.41 ± 0.21	77.77 ± 0.63	95.35 ± 0.77	116.13 ± 0.93	135.37 ± 1.1	CCO [ethanol]
